Results as given in PMC6726858, “Discovery and characterization of a small‐molecule enteropeptidase inhibitor, SCO‐792” (Pharmacology Research & Perspectives, 2019).
Like-named read-outs stand apart in the source and are kept apart here. *: point of attachment. βNA = c1ccc2cc(N*)ccc2c1

Legend:
[1] = biological target: T1, recombinant light chain of human enteropeptidase (Homo sapiens, UniProt P98073); test: Determination of K m value of enteropeptidase for substrates; format: biochemical; conditions: Michaelis–Menten fit of initial velocities
T1 construct: purchased ITSI‐Biosciences (Johnstown, PA)
T1 sequence (P98073 785-1019 limits assumed): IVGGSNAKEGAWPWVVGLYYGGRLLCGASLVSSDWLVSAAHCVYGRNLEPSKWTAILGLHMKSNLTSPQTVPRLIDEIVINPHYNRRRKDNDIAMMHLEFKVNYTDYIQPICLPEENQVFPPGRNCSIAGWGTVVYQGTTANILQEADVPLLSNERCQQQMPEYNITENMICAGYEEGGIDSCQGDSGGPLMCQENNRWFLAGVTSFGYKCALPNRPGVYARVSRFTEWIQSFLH
Description: Enteropeptidase is produced as a proenteropeptidase in enterocytes, the activation of which requires digestion to a light chain and a heavy chain. The light chain contains the catalytic active site, whereas the disulfide‐linked heavy chain provides the anchor to the brush border membrane. Thus, we used recombinant light chain of human enteropeptidase to discover its inhibitors. To identify small‐molecule enteropeptidase inhibitors, we designed two specific dual‐labeled substrates and developed enzyme assay systems. In the assay, the energy of the donor of an uncleaved substrate is transferred to the proximal acceptor at the opposite side of the substrate. When protease cleaves the substrate, the pair separates and the donor no longer transfers its emission to the acceptor, which leads to an increase in the fluorescence intensity observed from the donor.15 Enteropeptidase activity was measured with our designed substrates, Cy5‐labeled (Figure 1C) and 5FAM‐labeled substrates (Figure 1E), and commercially available substrate, H‐Gly‐Asp‐Asp‐Asp‐Asp‐Lys‐βNA (GDDDDK‐βNA), naphthylamine (Figure 1A). In our assay system, the fluorescence signal from the enzyme reaction increased in a time‐dependent manner. […]

[2] = biological target: T2, human recombinant enteropeptidase (Homo sapiens, UniProt P98073); test: Enteropeptidase enzyme assay (human recombinant enteropeptidase, FRET substrate); format: biochemical; conditions: 120‐minute incubation; read-out: IC50 (95% confidence intervals), human enteropeptidase activity
T2 construct: purchased ITSI‐Biosciences (Johnstown, PA)
T2 sequence (P98073 785-1019 limits assumed): as above
Description: In the HTS, enzyme and substrate were dissolved in the enteropeptidase assay buffer [50 mmol/L Tricine, pH 8.0, 0.01% (w/v) Tween20, and 10 mmol/L CaCl2]. Twenty‐five nanoliters of compound solution dissolved in DMSO was added to a 1536‐well black plate, and then 2 μL of 90 mU/mL human recombinant enteropeptidase solution was added to the plate and incubated at room temperature for 60 minutes. Next, 2 μL of substrate solution [2.1 μmol/L QSY21‐Gly‐Asp‐Asp‐Asp‐Lys‐Ile‐Val‐Gly‐Gly‐Lys (Cy5)] was added to the plate and incubated at room temperature for 30 minutes. After incubation, 2 μL of 30 mmol/L H2SO4 solution was added to stop the reaction. The fluorescence was measured at an excitation wavelength of 620 nm and an emission wavelength of 685 nm by multilabel plate reader EnVision (PerkinElmer, Waltham, MA).
For kinetic analysis, compounds were dissolved in DMSO and then diluted in the enteropeptidase assay buffer. […] The fluorescence was measured every minute at an excitation wavelength of 485 nm and an emission wavelength of 520 nm using an EnVision multilabel plate reader. The progress curves were fitted to the following equation to determine the values for k obs, the apparent rate constant from initial rate v 0 to steady state rate v s:(1) F=vst+(v0-vs)(1-e^-kobst)/kobs+F0, where t is the time, F is the fluorescence, and F 0 is the fluorescence at time t = 0. […]

[3] = Pharmacokinetic study in rats; format: in vivo, Sprague‐Dawley rats; conditions: for AUC(0-t): read-out: AUC0–24 h
Description: Male Sprague‐Dawley rats were obtained from Charles River Laboratories Japan, Inc. (Yokohama, Japan). A pharmacokinetic study was conducted when the animals were 8 weeks old. For oral administration, SCO‐792 was suspended in a 0.5% (w/v) methylcellulose solution. For intravenous administration, SCO‐792 was dissolved in DMSO and added with saline to prepare a dosing formulation at a concentration of 0.2 mg/mL (DMSO:saline = 2:8 (v/v)). The oral dosing formulations were mixed well and given to fed‐male rats at single doses of 10 mg/5 ml/kg using polypropylene syringes with gavage needles. The intravenous dosing formulation was injected into the femoral vein of fed‐male rats at a dose of 0.2 mg/1 ml/kg using polypropylene syringes with needles under anesthesia with isoflurane. The blood was collected at the indicated time points, and the plasma concentrations of SCO‐792 were determined by high‐performance liquid chromatography/tandem mass spectrometry.

DPP‐4 = DPP‐4 (Homo sapiens, UniProt P27487); test: Serine protease selectivity: DPP‐4; format: biochemical; conditions: at 10 μmol/L; read-out: inhibitory activity against DPP‐4
Chain of DPP‐4 (P27487 whole entry, species assumed): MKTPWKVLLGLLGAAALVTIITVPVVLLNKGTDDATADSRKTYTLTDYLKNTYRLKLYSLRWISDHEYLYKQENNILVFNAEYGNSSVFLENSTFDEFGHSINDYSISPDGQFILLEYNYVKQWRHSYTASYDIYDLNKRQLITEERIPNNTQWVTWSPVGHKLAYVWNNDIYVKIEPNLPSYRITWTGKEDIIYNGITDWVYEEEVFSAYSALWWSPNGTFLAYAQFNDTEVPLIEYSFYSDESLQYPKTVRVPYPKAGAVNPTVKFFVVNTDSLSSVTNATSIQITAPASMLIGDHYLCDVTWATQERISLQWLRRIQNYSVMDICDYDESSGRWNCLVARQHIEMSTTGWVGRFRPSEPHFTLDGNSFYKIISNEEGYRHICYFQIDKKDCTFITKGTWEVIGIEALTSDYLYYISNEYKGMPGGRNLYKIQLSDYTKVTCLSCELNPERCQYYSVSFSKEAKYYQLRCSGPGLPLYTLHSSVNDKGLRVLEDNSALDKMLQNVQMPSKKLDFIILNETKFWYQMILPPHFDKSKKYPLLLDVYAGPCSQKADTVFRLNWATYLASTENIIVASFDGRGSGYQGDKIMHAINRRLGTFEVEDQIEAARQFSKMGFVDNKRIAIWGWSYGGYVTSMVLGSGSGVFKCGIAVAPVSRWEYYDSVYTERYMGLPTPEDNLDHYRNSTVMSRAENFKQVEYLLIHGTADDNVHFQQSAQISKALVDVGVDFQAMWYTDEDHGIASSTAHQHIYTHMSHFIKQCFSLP

chymotrypsin = test: Serine protease selectivity: chymotrypsin; format: biochemical; conditions: at 10 μmol/L
factor Xa = factor Xa (Homo sapiens, UniProt P00742); test: Serine protease selectivity: factor Xa; format: biochemical; conditions: at 10 μmol/L; read-out: inhibitory activity against factor Xa
Chain of factor Xa (P00742 235-488 limits assumed): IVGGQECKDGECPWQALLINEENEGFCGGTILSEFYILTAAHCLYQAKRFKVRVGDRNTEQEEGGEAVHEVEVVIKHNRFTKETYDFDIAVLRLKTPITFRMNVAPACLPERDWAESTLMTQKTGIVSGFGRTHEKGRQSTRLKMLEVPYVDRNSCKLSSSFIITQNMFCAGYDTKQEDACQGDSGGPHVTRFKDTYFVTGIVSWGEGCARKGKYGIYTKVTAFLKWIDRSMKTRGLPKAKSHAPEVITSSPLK
Chain of factor Xa (P00742 41-179 partner limits assumed): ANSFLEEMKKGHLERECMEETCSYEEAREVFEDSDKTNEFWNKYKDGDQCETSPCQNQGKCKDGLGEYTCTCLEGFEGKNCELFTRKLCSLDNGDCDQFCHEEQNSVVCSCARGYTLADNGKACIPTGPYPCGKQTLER

[4] = biological target: T2, human recombinant enteropeptidase; test: Kinetic analysis of enteropeptidase inhibition (progress curves, k obs); format: biochemical; conditions: for k inact/K I: 5FAM‐labeled substrate 0.7 μmol/L, corrected for [S]/Km
Description: For kinetic analysis, compounds were dissolved in DMSO and then diluted in the enteropeptidase assay buffer. Five microliters of compound solution was added to a 384‐well black plate followed by 5 μL of substrate solution [2.1 μmol/L 5FAM‐Abu‐Gly‐Asp‐Asp‐Asp‐Lys‐Ile‐Val‐Gly‐Gly‐Lys (CPQ2)‐Lys‐Lys‐NH2] and 5 μL of 24 mU/mL human recombinant enteropeptidase solution and mixed. The final concentration of substrate was 0.7 μmol/L, which is almost the same as the K m value. The fluorescence was measured every minute at an excitation wavelength of 485 nm and an emission wavelength of 520 nm using an EnVision multilabel plate reader. The progress curves were fitted to the following equation to determine the values for k obs, the apparent rate constant from initial rate v 0 to steady state rate v s:(1) F=vst+(v0-vs)(1-e^-kobst)/kobs+F0, where t is the time, F is the fluorescence, and F 0 is the fluorescence at time t = 0.
The k inact/K I,app value was determined as the slope of the [I] vs k obs plot, and the corrected k inact/K I value was also estimated according to the following equation:(2) kinact/KI,app=kinact/KI/(1+[S]/Km), where [I] is the concentration of inhibitor, [S] is the concentration of substrate, and K m is the Michaelis–Menten constant.

[5] = tested on: plasma branched‐chain amino acids (BCAA); test: Oral protein challenge in rats (plasma BCAA); format: in vivo, Sprague‐Dawley rats; conditions: 10, 30 mg/kg oral, ≤4 hour prior to whey protein load 2.5 g/kg
Description: Male Sprague‐Dawley rats were obtained from CLEA Japan Inc. (Tokyo, Japan). Eight‐week‐old rats were randomized into three groups on the basis of body weight and body weight change before the experiment (n = 4). SCO‐792 (10, 30 mg/kg in a 0.5% (w/v) methylcellulose solution) was then orally administered 1, 2, 4, and 6 hours before an oral whey protein load (2.5 g/kg; SAVAS whey protein 100, Meiji, Japan), and blood samples were collected at indicated time points for the measurement of plasma branched‐chain amino acids (BCAA).
Plasma BCAA concentration was measured using an enzymatic spectrophotometric assay as described by Beckett.14 Briefly, bacterial leucine dehydrogenase was used to catalyze the oxidation of BCAA, and the production of NADH was measured using a spectrophotometer (excitation 355 nm, emission 460 nm). L‐leucine was used to generate a standard curve to determine sample concentrations.

thrombin = thrombin (Homo sapiens, UniProt P00734); test: Serine protease selectivity: thrombin; format: biochemical; conditions: at 10 μmol/L; read-out: inhibitory activity against thrombin
[6] = biological target: T2, human recombinant enteropeptidase; test: Dissociation assay (rapid dilution); format: biochemical
Description: For the dissociation assay, compounds were dissolved in DMSO and then diluted in the enteropeptidase assay buffer. Ten microliters of compound solution was added to a 96‐well plate, and then 10 μL of 100 mU/mL human recombinant enteropeptidase solution was added to the plate and incubated at room temperature for 120 minutes. The concentration of the compound was equal to 10‐fold of the IC50 value upon incubation for 120 minutes. After this incubation, 2 μL of an compound‐enzyme mixture was transferred to a 96‐well black plate, and then 200 μL of substrate solution [3 μmol/L 5FAM‐Abu‐Gly‐Asp‐Asp‐Asp‐Lys‐Ile‐Val‐Gly‐Gly‐Lys(CPQ2)‐Lys‐Lys‐NH2] was added to the well. By its rapid dilution, the concentration of the inhibitor dropped from 10‐fold above the IC50 to 10‐fold below it. The fluorescence was measured every […] at an excitation wavelength of 485 nm and an emission wavelength of 520 nm using an EnVision multilabel plate reader. The progress curves were fitted to the following equations to determine the values for k off and dissociation half‐life, t 1/2.(3) F=vst+((v0-vs)(1-e^-kofft))/koff+F0 (4) t1/2=ln(2)/koff

factor XIIa = biological target: T3, factor XIIa (Homo sapiens, UniProt P00748); test: Serine protease selectivity: factor XIIa; format: biochemical; conditions: at 10 μmol/L; read-out: inhibitory activity against factor XIIa
T3 sequence (P00748 373-615 limits assumed): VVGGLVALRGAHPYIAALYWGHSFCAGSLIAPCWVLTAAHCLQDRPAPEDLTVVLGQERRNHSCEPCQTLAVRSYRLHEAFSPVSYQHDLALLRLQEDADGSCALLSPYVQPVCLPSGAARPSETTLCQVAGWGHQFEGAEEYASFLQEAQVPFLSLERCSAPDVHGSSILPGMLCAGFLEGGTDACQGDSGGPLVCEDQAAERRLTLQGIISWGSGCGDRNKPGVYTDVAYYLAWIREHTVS

plasmin = plasmin (Homo sapiens, UniProt P00747); test: Serine protease selectivity: plasmin (Panlabs Enzymatic Assay Services, Eurofins); format: biochemical
Chain of plasmin (P00747 581-810 limits assumed, species assumed): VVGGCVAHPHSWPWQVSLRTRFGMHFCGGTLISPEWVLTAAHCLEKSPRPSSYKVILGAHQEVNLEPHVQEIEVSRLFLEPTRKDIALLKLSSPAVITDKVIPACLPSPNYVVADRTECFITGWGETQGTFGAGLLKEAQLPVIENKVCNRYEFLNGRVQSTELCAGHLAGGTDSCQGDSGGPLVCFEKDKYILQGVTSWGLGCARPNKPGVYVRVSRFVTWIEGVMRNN
Chain of plasmin (P00747 97-580 partner limits assumed, species assumed): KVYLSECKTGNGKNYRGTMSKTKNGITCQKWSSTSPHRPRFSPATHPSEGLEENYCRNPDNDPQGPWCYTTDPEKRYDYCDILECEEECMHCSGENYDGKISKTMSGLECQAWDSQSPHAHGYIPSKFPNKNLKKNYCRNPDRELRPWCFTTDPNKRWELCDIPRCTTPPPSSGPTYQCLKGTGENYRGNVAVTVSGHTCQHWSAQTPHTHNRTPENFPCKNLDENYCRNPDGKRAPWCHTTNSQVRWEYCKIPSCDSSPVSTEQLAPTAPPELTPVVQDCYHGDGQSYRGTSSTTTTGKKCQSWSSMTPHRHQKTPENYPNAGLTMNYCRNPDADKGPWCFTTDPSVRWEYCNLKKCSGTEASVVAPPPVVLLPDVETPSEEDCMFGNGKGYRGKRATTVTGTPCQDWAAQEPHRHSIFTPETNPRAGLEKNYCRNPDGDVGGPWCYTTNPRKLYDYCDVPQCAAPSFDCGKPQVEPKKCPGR

plasma kallikrein = plasma kallikrein (Homo sapiens, UniProt P03952); test: Serine protease selectivity: plasma kallikrein (Panlabs Enzymatic Assay Services, Eurofins); format: biochemical
Chain of plasma kallikrein (P03952 391-638 limits assumed, species assumed): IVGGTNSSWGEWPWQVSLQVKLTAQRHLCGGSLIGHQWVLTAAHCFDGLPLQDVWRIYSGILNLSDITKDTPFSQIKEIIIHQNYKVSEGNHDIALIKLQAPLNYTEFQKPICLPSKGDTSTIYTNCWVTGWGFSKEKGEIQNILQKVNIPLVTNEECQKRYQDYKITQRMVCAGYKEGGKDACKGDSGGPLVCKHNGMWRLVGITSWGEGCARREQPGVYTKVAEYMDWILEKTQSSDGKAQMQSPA
Chain of plasma kallikrein (P03952 20-390 partner limits assumed, species assumed): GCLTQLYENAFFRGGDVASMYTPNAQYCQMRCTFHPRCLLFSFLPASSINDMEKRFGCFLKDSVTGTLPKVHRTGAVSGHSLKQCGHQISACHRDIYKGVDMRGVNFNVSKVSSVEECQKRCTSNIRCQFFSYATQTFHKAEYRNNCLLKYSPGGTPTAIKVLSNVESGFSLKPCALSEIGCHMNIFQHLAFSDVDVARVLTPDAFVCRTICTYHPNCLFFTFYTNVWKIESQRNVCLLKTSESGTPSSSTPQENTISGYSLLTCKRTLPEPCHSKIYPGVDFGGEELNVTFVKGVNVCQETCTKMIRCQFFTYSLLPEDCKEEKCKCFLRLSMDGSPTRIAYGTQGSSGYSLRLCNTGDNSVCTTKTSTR

Chemical stability = format: physicochemical
[7] = male, Sprague-Dawley, rat, in vivo, intravenous, 0.2 mg/kg, mean ± SD (n = 3)
[8] = male, Sprague-Dawley, rat, in vivo, oral, 10 mg/kg, mean ± SD (n = 3)
[9] = 120 min preincubation, rapid dilution

For “5FAM‐Abu‐Gly‐Asp‐Asp‐Asp‐Lys‐Ile‐Val‐Gly‐Gly‐Lys (CPQ2)‐Lys‐Lys‐NH2 [5FAM‐labeled substrate]”, the “K m value for enteropeptidase” value [1] was 0.7 µM.
`N=C(N)Nc1ccc(C(=O)Oc2ccc3c(c2)OC[C@H]3CC(=O)N[C@@H](CC(=O)O)C(=O)O)cc1.O` [SCO‐792, N‐({(3S)‐6‐[(4‐carbamimidamidobenzoyl)oxy]‐2,3‐dihydro‐1‐benzofuran‐3‐yl}acetyl)‐L‐aspartic acid hydrate] showed an IC50 [2] of 5.4 nM, a BA ([3]; from AUC0‐24 h oral 10 mg/kg vs intravenous 0.2 mg/kg) of 0.4% and an AUC(0-inf) [3, 7] of 304 ± 30 ng·h/mL. For the same compound, the half-life [3, 7] was 5.2 ± 1.8 h, the AUC(0-t) [3, 7] was 303 ± 23 ng·h/mL and the clearance ([3]; male, Sprague-Dawley, rat, in vivo, intravenous, 0.2 mg/kg, mean ± SD (n = 3), read-out: CLp (converted)) was 11.1 mL/min/kg. It also gave a Vd ([3]; male, Sprague-Dawley, rat, in vivo, intravenous, 0.2 mg/kg, mean ± SD (n = 3), read-out: Vss) of 1.29 ± 0.299 L/kg, a Cmax at 5 min ([3]; male, Sprague-Dawley, rat, in vivo, intravenous, 0.2 mg/kg, observed at 5 minutes, mean ± SD (n = 3), read-out: C max (C5 min)) of 564 ± 58 ng/mL and an AUC(0-inf) [3, 8] of 49.8 ± 5.4 ng·h/mL. For the same compound, the Cmax [3, 8] was 6.6 ± 1.36 ng/mL, the Tmax [3, 8] was 1.7 ± 0.6 h and the half-life [3, 8] was 4.4 ± 0.5 h. For the same compound, the AUC(0-t) [3, 8] was 54.1 ± 7.5 ng·h/mL, the inhibition at 10 µM (DPP‐4) was less than 50% and the “inhibitory activity against chymotrypsin” value (chymotrypsin) was less than 50%. For the same compound, the inhibition at 10 µM (factor Xa) was less than 50%, the “time dependence of enteropeptidase inhibition” value [4] was “time‐dependent” and the “k inact/K I” value [4] was 82 000 /mol/L s. The “effect on plasma BCAA elevations induced by oral protein dosing” value [5] was “effectively and dose‐dependently inhibited”, the inhibition at 10 µM (thrombin) was less than 50% and the reversibility of inhibition [6] was “reversible”. For the same compound, the “dissociation t 1/2” value [6, 9] was 14 h, the koff [6, 9] was 1.31e-05 s⁻¹ and the inhibition at 10 µM (factor XIIa) was less than 50%. The IC50 (plasmin) was 460 nM and the IC50 (plasma kallikrein) was 16 nM.
With `Cc1cc(OC(=O)c2ccc(NC(=N)N)cc2)no1` [T‐0046812] the IC50 [2] was 140 nM, the chemical stability (Chemical stability; pH 1.2) was “unstable” and the chemical stability (Chemical stability; pH 6.8) was “unstable”. The “time dependence of enteropeptidase inhibition” value [4] was “time‐dependent” and the “k inact/K I” value [4] was 5300 mol⁻¹ L⁻¹ s⁻¹.
With H-GDDDDK-βNA [GDDDDK‐βNA] the “K m value for enteropeptidase” value [1] was 230 µM.
